Test results from US20250129062A1, “AMORPHOUS SUBSTANCES, CRYSTALS, PHARMACEUTICAL COMPOSITIONS, PREPARATION METHODS AND USES OF THIOHYDANTOIN COMPOUND OR PHARMACEUTICALLY ACCEPTABLE SALT THEREOF” (SUZHOU KINTOR PHARMACEUTICALS, INC., priority 2021, published 2025).
Several values for one entry are separate records, joined by “and”; a condition that tells them apart may be missing. Equal entries are not always repeated. Where two headings read alike, the source gives them in different places.

Key:
[1] = Distribution of compound in sebaceous glands and blood of golden hamsters after single skin application; type: in vivo; conditions: for Concentration in sebaceous glands / concentration at 8 h: 8 h
Procedure: 6 male golden hamsters were selected for the experiment, and randomly divided evenly into 2 groups, with three golden hamsters per group. All animals were fasted overnight before administration, and were administered via a route of single application. Sampling was performed at specific time points after administration. Specific information on animal grouping, administration, sampling, etc. were detailed in Table 6.
The amorphous substance of the compound of formula I was weighed and placed in a 50 mL centrifugal tube. A mixed solvent (consisting of 75% v/v ethanol, 15% v/v glyceryl tri (2-ethylhexanoate) and 10% v/v glycerin) was added. After vortexing, heating was performed at 60° C. until the amorphous substance of the compound of formula I was completely dissolved. The amorphous substances of the compound of formula I in the two groups were prepared at 30 mg/mL and 100 mg/mL, respectively, and stored at room temperature in the dark.
After administration, blood was collected into blood collection tubes containing a heparin sodium anticoagulant at corresponding time points. Immediately after collection of whole blood, the blood collection tubes were gently shaken and placed on ice, and then centrifuged (4° C., 4000 rpm, 10 min). The supernatant plasma samples (plasma volume ≥100 μL) were collected, and stored in a refrigerator at about −80° C. The plasma samples were collected for 8 h for analysis.

[2] = Solubility of amorphous substance in solvent systems (supersaturated solution, oscillated 24 h at room temperature, HPLC); type: physicochemical; conditions: dehydrated alcohol 50%: water 50% (w/w), aqueous with cosolvent or surfactant or cyclodextrin, thermodynamic from solid, Dehydrated alcohol 50%: water 50% (w/w); read-out: 24 h solubility
Procedure: The amorphous substance of the compound of formula I was prepared into supersaturated solutions with different solvents, and oscillated under a room temperature condition (a constant temperature). After oscillating for 24 h, sampling was performed, and the content of the sample was detected by HPLC under condition 1.
Condition 1: • Chromatographic column: C18 (150 mm×4.6 mm×3.5 μm); • Mobile phase: binary mobile phase system, mobile phase A was 0.1% formic acid in water, mobile phase B was acetonitrile; • Elution time: 68 min; • Elution mode: gradient elution (in the gradient elution process, mobile phase A had the maximum volume percentage of 95% and the minimum volume percentage of 10%); • Detection wavelength: 270 nm.

With `Cc1ncsc1-c1ccc(CNC(=O)[C@@H]2C[C@@H](O)CN2C(=O)[C@@H](NC(=O)COCCCCOc2ccc(-c3ccc(N4C(=S)N(c5ccc(C#N)c(C(F)(F)F)c5F)C(=O)C4(C)C)cn3)cc2)C(C)(C)C)cc1` [compound of formula I] the “Concentration in sebaceous glands” value ([1]; Left sebaceous gland, dose 1.2 mg, individual animals No. 1-3) was 10900 ng/mL and 20400 ng/mL and 7010 ng/mL, the “Concentration in sebaceous glands” value ([1]; Left sebaceous gland, dose 4 mg, individual animals No. 4-6) was 57100 ng/mL and 15000 ng/mL and 8340 ng/mL and the “Concentration in sebaceous glands” value ([1]; Right sebaceous gland, dose 1.2 mg, individual animals No. 1-3) was 17900 ng/mL and 15700 ng/mL. The “Concentration in sebaceous glands” value ([1]; Right sebaceous gland, dose 4 mg, individual animals No. 4-6) was 19900 ng/mL and 18400 ng/mL, the “distribution between sebaceous glands and blood after skin application” value ([1]; golden hamsters, administration via skin application) was “can enter sebaceous glands, but cannot enter blood” and the “maximum blood drug concentration” value ([1]; group 2, dose 4 mg, over sampling time points 0.25, 0.5, 1, 2, 4, 6 and 8 h) was 10.6 ng/mL. For the same molecule, the “Concentration of compound of formula I in plasma” value ([1]; male golden hamsters, skin application 4 mg, 2 h, individual animals No. 4, 5, 6) was 10.6 ng/mL, the “Concentration of compound of formula I in plasma” value ([1]; male golden hamsters, skin application 4 mg, 4 h, individual animals No. 4, 5, 6) was 4.42 ng/mL and the concentration at 0.5 h ([1]; male, hamster, plasma, topical, 4 mg, male golden hamsters, skin application 4 mg, 0.5 h, individual animals No. 4, 5, 6, read-out: Concentration of compound of formula I in plasma) was < 0 ng/mL. The concentration at 1 h ([1]; male, hamster, plasma, topical, 4 mg, male golden hamsters, skin application 4 mg, 1 h, individual animals No. 4, 5, 6, read-out: Concentration of compound of formula I in plasma) was < 0 ng/mL, the concentration at 2 h ([1]; male, hamster, plasma, topical, 4 mg, male golden hamsters, skin application 4 mg, 2 h, read-out: Concentration of compound of formula I in plasma, Mean) was 11 ng/mL and the concentration at 4 h ([1]; male, hamster, plasma, topical, 4 mg, male golden hamsters, skin application 4 mg, 4 h, read-out: Concentration of compound of formula I in plasma, Mean) was 4 ng/mL. The concentration at 8 h ([1]; male, hamster, right sebaceous gland, topical, 1.2 mg, Right sebaceous gland, dose 1.2 mg, individual animals No. 1-3, read-out: Concentration in sebaceous glands) was 9170 ng/mL, the concentration at 8 h ([1]; male, hamster, right sebaceous gland, topical, 4 mg, Right sebaceous gland, dose 4 mg, individual animals No. 4-6, read-out: Concentration in sebaceous glands) was 26600 ng/mL and the concentration at 8 h ([1]; male, hamster, sebaceous glands (left and right), topical, 1.2 mg, left and right sebaceous glands, dose 1.2 mg, read-out: Concentration mean in sebaceous glands) was 13500 ng/mL. It also gave a concentration at 8 h ([1]; male, hamster, sebaceous glands (left and right), topical, 4 mg, left and right sebaceous glands, dose 4 mg, read-out: Concentration mean in sebaceous glands) of 24200 ng/mL and a solubility at 24 h [2] of 6440 µg/mL.
